In ChEMBL document CHEMBL1255337, “Entecavir exhibits inhibitory activity against human immunodeficiency virus under conditions of reduced viral challenge” (Antimicrob Agents Chemother, 2008):
Calls of active or inactive are those of the source. The rule behind the calls is not given here.

How the values were obtained:
[1] = system: Human immunodeficiency virus 1; test: microbe, parasite or virus in culture; conditions: Human immunodeficiency virus 1, subtype B-ASM 034, PBMC
Description: Antiviral activity against HIV1 subtype B-ASM 034 infected in 1 hr-pretreated PBMC cells assessed as inhibition of p24 antigen production measured on day 5 postinfection by ELISA

[2] = system: Human immunodeficiency virus 1; test: microbe, parasite or virus in culture; conditions: Human immunodeficiency virus 1, NL4-3, MT2, 120 h
Description: Antiviral activity against 0.005 MOI wild type HIV1 NL4-3 infected in human MT2 cells measured after 5 days by RT SPA

[3] = system: Human immunodeficiency virus 1; test: microbe, parasite or virus in culture; conditions: Human immunodeficiency virus 1, NL4-3, MT2, 120 h; remark: listed apart in the source
Description: Antiviral activity against 0.01 MOI wild type HIV1 NL4-3 infected in human MT2 cells measured after 5 days by MTS assay

[4] = system: Human immunodeficiency virus 1; test: microbe, parasite or virus in culture; conditions: Human immunodeficiency virus 1, NL4-3, MT2
Description: Antiviral activity against 0.02 MOI wild type HIV1 NL4-3 infected in 2 hr-pretreated human MT2 cells measured after 5 days by MTS assay

[5] = system: Human immunodeficiency virus 1; test: microbe, parasite or virus in culture; conditions: Human immunodeficiency virus 1, NL4-3, MT2, 120 h; remark: listed apart in the source
Description: Antiviral activity against 0.05 MOI wild type HIV1 NL4-3 infected in human MT2 cells measured after 5 days by RT SPA

[6] = system: Human immunodeficiency virus 1; test: microbe, parasite or virus in culture; conditions: Human immunodeficiency virus 1, subtype B-93US143, PBMC
Description: Antiviral activity against HIV1 subtype B-93US143 infected in 1 hr-pretreated PBMC cells assessed as inhibition of p24 antigen production measured on day 5 postinfection by ELISA

[7] = system: Human immunodeficiency virus 1; test: microbe, parasite or virus in culture; conditions: Human immunodeficiency virus 1, NL4-3, MT2; remark: listed apart in the source
Description: Antiviral activity against 0.05 MOI wild type HIV1 NL4-3 infected in 2 hr-pretreated human MT2 cells measured after 5 days by RT SPA

[8] = system: Human immunodeficiency virus 1; test: microbe, parasite or virus in culture; conditions: Human immunodeficiency virus 1, subtype B-RF, MT2
Description: Antiviral activity against HIV1 subtype B-RF infected in 1 hr-pretreated human MT2 cells assessed as inhibition of multicycle replication measured on day 5 postinfection by RT SPA

[9] = system: Human immunodeficiency virus 1; test: microbe, parasite or virus in culture; conditions: Human immunodeficiency virus 1, NL4-3, MT2, 120 h; remark: listed apart in the source
Description: Antiviral activity against 0.02 MOI wild type HIV1 NL4-3 infected in human MT2 cells measured after 5 days by MTS assay

[10] = system: Human immunodeficiency virus 1; test: Antiviral activity against HIV1 3B infected in MOLT-4/3B cells assessed as inhibition of mature virus release measured after 4 days of infection by RT assay; format: functional, organism-based; conditions: Human immunodeficiency virus 1, 3B, MOLT-4, 96 h
[11] = system: Human immunodeficiency virus 1; test: microbe, parasite or virus in culture; conditions: Human immunodeficiency virus 1, subtype B-NL4-3, MT2
Description: Antiviral activity against HIV1 subtype B-NL4-3 infected in 1 hr-pretreated human MT2 cells assessed as inhibition of multicycle replication measured on day 5 postinfection by RT SPA

[12] = system: Human immunodeficiency virus 1; test: microbe, parasite or virus in culture; conditions: Human immunodeficiency virus 1, NL4-3, MT2; remark: listed apart in the source
Description: Antiviral activity against 0.005 MOI wild type HIV1 NL4-3 infected in 2 hr-pretreated human MT2 cells measured after 5 days by RT SPA

[13] = system: Human immunodeficiency virus 1; test: microbe, parasite or virus in culture; conditions: Human immunodeficiency virus 1, NL4-3, MT2, 120 h; remark: listed apart in the source
Description: Antiviral activity against 0.01 MOI wild type HIV1 NL4-3 infected in human MT2 cells measured after 5 days by RT SPA

[14] = system: Human immunodeficiency virus 1; test: microbe, parasite or virus in culture; conditions: Human immunodeficiency virus 1, subtype B-92US076, PBMC
Description: Antiviral activity against HIV1 subtype B-92US076 infected in 1 hr-pretreated PBMC cells assessed as inhibition of p24 antigen production measured on day 5 postinfection by ELISA

[15] = system: Human immunodeficiency virus 1; test: microbe, parasite or virus in culture; conditions: Human immunodeficiency virus 1, NL4-3, MT2; remark: listed apart in the source
Description: Antiviral activity against 0.05 MOI wild type HIV1 NL4-3 infected in 2 hr-pretreated human MT2 cells measured after 5 days by MTS assay

[16] = system: Human immunodeficiency virus 1; test: microbe, parasite or virus in culture; conditions: Human immunodeficiency virus 1, subtype B-SF-2, MT2
Description: Antiviral activity against HIV1 subtype B-SF-2 infected in 1 hr-pretreated human MT2 cells assessed as inhibition of multicycle replication measured on day 5 postinfection by RT SPA

[17] = system: Human immunodeficiency virus 1; test: microbe, parasite or virus in culture; conditions: Human immunodeficiency virus 1, NL4-3, MT2; remark: listed apart in the source
Description: Antiviral activity against 0.01 MOI wild type HIV1 NL4-3 infected in 2 hr-pretreated human MT2 cells measured after 5 days by MTS assay

[18] = system: Human immunodeficiency virus 1; test: microbe, parasite or virus in culture; conditions: Human immunodeficiency virus 1, NL4-3, MT2, 120 h; remark: listed apart in the source
Description: Antiviral activity against 0.02 MOI wild type HIV1 NL4-3 infected in human MT2 cells measured after 5 days by RT SPA

[19] = system: Human immunodeficiency virus 1; test: microbe, parasite or virus in culture; conditions: Human immunodeficiency virus 1, subtype B-LAI, MT2
Description: Antiviral activity against HIV1 subtype B-LAI infected in 1 hr-pretreated human MT2 cells assessed as inhibition of multicycle replication measured on day 5 postinfection by RT SPA

[20] = system: Human immunodeficiency virus 1; test: microbe, parasite or virus in culture; conditions: Human immunodeficiency virus 1, NL4-3, MT2, 120 h; remark: listed apart in the source
Description: Antiviral activity against 0.005 MOI wild type HIV1 NL4-3 infected in human MT2 cells measured after 5 days by MTS assay

[21] = system: Human immunodeficiency virus 1; format: functional, organism-based; conditions: Human immunodeficiency virus 1, NL4-3, MT2
[22] = system: Human immunodeficiency virus 1; format: functional, organism-based; conditions: NL4-3, 2.5 uM
[23] = system: Human immunodeficiency virus 1; test: microbe, parasite or virus in culture; conditions: Human immunodeficiency virus 1, subtype B-3B, MT2
Description: Antiviral activity against HIV1 subtype B-3B infected in 1 hr-pretreated human MT2 cells assessed as inhibition of multicycle replication measured on day 5 postinfection by RT SPA

[24] = system: Human immunodeficiency virus 1; test: microbe, parasite or virus in culture; conditions: Human immunodeficiency virus 1, subtype B-ASM 044, PBMC
Description: Antiviral activity against HIV1 subtype B-ASM 044 infected in 1 hr-pretreated PBMC cells assessed as inhibition of p24 antigen production measured on day 5 postinfection by ELISA

[25] = system: Human immunodeficiency virus 1; test: microbe, parasite or virus in culture; conditions: Human immunodeficiency virus 1, NL4-3, MT2; remark: listed apart in the source
Description: Antiviral activity against 0.02 MOI wild type HIV1 NL4-3 infected in 2 hr-pretreated human MT2 cells measured after 5 days by RT SPA

[26] = system: Human immunodeficiency virus 1; test: microbe, parasite or virus in culture; conditions: Human immunodeficiency virus 1, NL4-3, MT2; remark: listed apart in the source
Description: Antiviral activity against 0.005 MOI wild type HIV1 NL4-3 infected in 2 hr-pretreated human MT2 cells measured after 5 days by MTS assay

[27] = system: Human immunodeficiency virus 1; test: microbe, parasite or virus in culture; conditions: Human immunodeficiency virus 1, subtype B-HXB2, MT2
Description: Antiviral activity against HIV1 subtype B-HXB2 infected in 1 hr-pretreated human MT2 cells assessed as inhibition of multicycle replication measured on day 5 postinfection by RT SPA

[28] = system: Human immunodeficiency virus 1; test: microbe, parasite or virus in culture; conditions: Human immunodeficiency virus 1, NL4-3, MT2; remark: listed apart in the source
Description: Antiviral activity against 0.01 MOI wild type HIV1 NL4-3 infected in 2 hr-pretreated human MT2 cells measured after 5 days by RT SPA

[29] = system: Human immunodeficiency virus 1; test: microbe, parasite or virus in culture; conditions: Human immunodeficiency virus 1, NL4-3, MT2; remark: listed apart in the source
Description: Antiviral activity against 0.005 MOI HIV1 NL4-3 harboring wild type RT infected in human MT2 cells

[30] = system: Human immunodeficiency virus 1; test: microbe, parasite or virus in culture; conditions: Human immunodeficiency virus 1, NL4-3, MT2, 120 h; remark: listed apart in the source
Description: Antiviral activity against 0.05 MOI wild type HIV1 NL4-3 infected in human MT2 cells measured after 5 days by MTS assay

[31] = system: Human immunodeficiency virus 1; test: microbe, parasite or virus in culture; conditions: Human immunodeficiency virus 1, NL-RLuc, MT2, 120 h
Description: Antiviral activity against pseudotype HIV1 NL-RLuc infected in human MT2 cells measured on day 5 postinfection by luciferase reporter gene assay

Nc1ccn([C@@H]2CS[C@H](CO)O2)c(=O)n1 [LAMIVUDINE]
EC50 [1]: 71 nM | EC50 [2]: 40 nM | EC50 [3]: 554 nM | EC50 [4]: 2440 nM | EC50 [5]: 372 nM | EC50 [6]: 850 nM | EC50 [7]: 2470 nM | EC50 [8]: 105 nM | EC50 [9]: 969 nM | EC50 [10]: > 100000 nM | EC50 [11]: 171 nM | EC50 [12]: 462 nM | EC50 [13]: 63 nM | EC50 [14]: 81 nM | EC50 [15]: 3250 nM | EC50 [16]: 183 nM | EC50 [17]: 1680 nM | EC50 [18]: 86 nM | EC50 [19]: 182 nM | EC50 [20]: 219 nM | EC50 [21]: > 10000 nM | Activity [22]: inactive | EC50 [23]: 47 nM | EC50 [24]: 40 nM | EC50 [25]: 1980 nM | EC50 [26]: 1260 nM | EC50 [27]: 202 nM | EC50 [28]: 667 nM | EC50 [29]: 40 nM | EC50 [30]: 927 nM | EC50 [31]: 1140 nM

Cc1c(O)cccc1C(=O)N[C@@H](CSc1ccccc1)[C@H](O)CN1C[C@H]2CCCC[C@H]2C[C@H]1C(=O)NC(C)(C)C [NELFINAVIR]
EC50 [10]: 29 nM

Cc1cn([C@H]2C[C@H](N=[N+]=[N-])[C@@H](CO)O2)c(=O)[nH]c1=O [ZIDOVUDINE]
EC50 [1]: 18 nM | EC50 [2]: 10 nM | EC50 [3]: 38 nM | EC50 [4]: 223 nM | EC50 [5]: 43 nM | EC50 [6]: 34 nM | EC50 [7]: 249 nM | EC50 [8]: 2.9 nM | EC50 [9]: 54 nM | EC50 [10]: > 10000 nM | EC50 [11]: 4.9 nM | EC50 [12]: 51 nM | EC50 [13]: 8 nM | EC50 [14]: 8 nM | EC50 [15]: 302 nM | EC50 [16]: 6.3 nM | EC50 [17]: 144 nM | EC50 [18]: 18 nM | EC50 [19]: 3.8 nM | EC50 [20]: 27 nM | EC50 [21]: 5 nM | EC50 [23]: 1.2 nM | EC50 [24]: 16 nM | EC50 [25]: 209 nM | EC50 [26]: 117 nM | EC50 [27]: 14 nM | EC50 [28]: 75 nM | EC50 [29]: 10 nM | EC50 [30]: 87 nM | EC50 [31]: 16 nM
